Measured values reported in patent US9815847B2 (Icahn School of Medicine at Mount Sinai, priority 2013, dated 2017).

Experiments:
Test in all cases: Kinase inhibition assay
Assay type in all cases: biochemical
Conditions in all cases: 10 μM ATP; 5-dose IC50 mode
ABL1 = molecular target: T1, ABL1 (Homo sapiens, UniProt P00519)
T1 construct: purchased Reaction Biology Corporation
Protocol: (§1) Kinase assays were performed at Reaction Biology Corporation. To a freshly prepared buffer solution was added the target kinase at a concentration of […]. The contents were mixed gently, and then compound 8h dissolved in DMSO was added to the reaction mixture in the appropriate concentration. The mixture was incubated at room temperature for 30 min. prior to addition of ATP to initiate the reaction. Compound 8h was tested in a 5-dose IC50 mode with 10-fold serial dilutions starting at 10 μM. For each of the kinases, a control compound in a 10-dose IC50 mode with 3-fold serial dilutions starting at 20 μM. The control compounds were GW5074 (3-(3,5-dibromo-4-hydroxy-benzylidene)-5-iodo-1,3-dihydro-indol-2-one) for BRAF, CK2a and RAF1, D4476 (4-[4-(2,3-dihydro-1,4-benzodioxin-6-yl)-5-(2-pyridinyl)-1H-imidazol-2-yl]benzamide) for CK1d; Wee1 inhibitor (4-(2-chlorophenyl)-9-hydroxypyrrolo[3,4-c]carbazole-1,3-(2H,6H)-dione) for WEE1 and saturosporine for other kinases. Reaction was carried out at 10 μM ATP concentration.

AKT1 = molecular target: T2, AKT1 (Homo sapiens, UniProt P31749)
T2 construct: purchased Reaction Biology Corporation
Protocol: as §1

ALK = molecular target: T3, ALK (Homo sapiens, UniProt Q9UM73)
T3 construct: purchased Reaction Biology Corporation
Protocol: as §1

ARK5/NUAK1 = molecular target: T4, ARK5/NUAK1 (Homo sapiens, UniProt O60285)
T4 construct: purchased Reaction Biology Corporation
Protocol: as §1

Aurora A = molecular target: T5, Aurora A (Homo sapiens, UniProt O14965)
T5 construct: purchased Reaction Biology Corporation
Protocol: as §1

Aurora B = molecular target: T6, Aurora B (Homo sapiens, UniProt Q96GD4)
T6 construct: purchased Reaction Biology Corporation
Protocol: as §1

Aurora C = molecular target: T7, Aurora C (Homo sapiens, UniProt Q9UQB9)
T7 construct: purchased Reaction Biology Corporation
Protocol: as §1

CDK2/cyclin A = molecular target: T8, CDK2/cyclin A (Homo sapiens, UniProt P24941)
T8 construct: purchased Reaction Biology Corporation
Protocol: as §1

CDK4/cyclin D1 = molecular target: T9, CDK4/cyclin D1 (Homo sapiens, UniProt P11802)
T9 construct: purchased Reaction Biology Corporation
Protocol: as §1

CDK5/p25 = molecular target: T10, CDK5/p25 (Homo sapiens, UniProt Q00535)
T10 construct: purchased Reaction Biology Corporation
Protocol: as §1

CDK5/p35 = molecular target: T11, CDK5/p35 (Homo sapiens, UniProt Q00535)
T11 construct: purchased Reaction Biology Corporation
Protocol: as §1

CDK6/cyclin D1 = molecular target: T12, CDK6/cyclin D1 (Homo sapiens, UniProt Q00534)
T12 construct: purchased Reaction Biology Corporation
Protocol: as §1

CHK1 = molecular target: T13, CHK1 (Homo sapiens, UniProt O14757)
T13 construct: purchased Reaction Biology Corporation
Protocol: as §1

CHK2 = molecular target: T14, CHK2 (Homo sapiens, UniProt O96017)
T14 construct: purchased Reaction Biology Corporation
Protocol: as §1

CK2a2 = molecular target: T15, CK2a2 (Homo sapiens, UniProt P19784)
T15 construct: purchased Reaction Biology Corporation
Protocol: as §1

EGFR = molecular target: T16, EGFR (Homo sapiens, UniProt P00533)
T16 construct: purchased Reaction Biology Corporation
Protocol: as §1

FGFR1 = molecular target: T17, FGFR1 (Homo sapiens, UniProt P11362)
T17 construct: purchased Reaction Biology Corporation
Protocol: as §1

FLT3 = molecular target: T18, FLT3 (Homo sapiens, UniProt P36888)
T18 construct: purchased Reaction Biology Corporation
Protocol: as §1

JAK1 = molecular target: T19, JAK1 (Homo sapiens, UniProt P23458)
T19 construct: purchased Reaction Biology Corporation
Protocol: as §1

JAK2 = molecular target: T20, JAK2 (Homo sapiens, UniProt O60674)
T20 construct: purchased Reaction Biology Corporation
Protocol: as §1

JAK3 = molecular target: T21, JAK3 (Homo sapiens, UniProt P52333)
T21 construct: purchased Reaction Biology Corporation
Protocol: as §1

MEK1 = molecular target: T22, MEK1 (Homo sapiens, UniProt Q02750)
T22 construct: purchased Reaction Biology Corporation
Protocol: as §1

MEK2 = molecular target: T23, MEK2 (Homo sapiens, UniProt P36507)
T23 construct: purchased Reaction Biology Corporation
Protocol: as §1

PDGFRb = molecular target: T24, PDGFRb (Homo sapiens, UniProt P09619)
T24 construct: purchased Reaction Biology Corporation
Protocol: as §1

PIM1 = molecular target: T25, PIM1 (Homo sapiens, UniProt P11309)
T25 construct: purchased Reaction Biology Corporation
Protocol: as §1

PIM2 = molecular target: T26, PIM2 (Homo sapiens, UniProt Q9P1W9)
T26 construct: purchased Reaction Biology Corporation
Protocol: as §1

PIM3 = molecular target: T27, PIM3 (Homo sapiens, UniProt Q86V86)
T27 construct: purchased Reaction Biology Corporation
Protocol: as §1

PLK1 = molecular target: T28, PLK1 (Homo sapiens, UniProt P53350)
T28 construct: purchased Reaction Biology Corporation
Protocol: as §1

PLK2 = molecular target: T29, PLK2 (Homo sapiens, UniProt Q9NYY3)
T29 construct: purchased Reaction Biology Corporation
Protocol: as §1

RET = molecular target: T30, RET (Homo sapiens, UniProt P07949)
T30 construct: purchased Reaction Biology Corporation
Protocol: as §1

RSK4 = molecular target: T31, RSK4 (Homo sapiens, UniProt Q9UK32)
T31 construct: purchased Reaction Biology Corporation
Protocol: as §1

c-Kit = molecular target: T32, c-Kit (Homo sapiens, UniProt P10721)
T32 construct: purchased Reaction Biology Corporation
Protocol: as §1

c-Src = molecular target: T33, c-Src (Homo sapiens, UniProt P12931)
T33 construct: purchased Reaction Biology Corporation
Protocol: as §1

T3 sequence (Q9UM73 19-1620): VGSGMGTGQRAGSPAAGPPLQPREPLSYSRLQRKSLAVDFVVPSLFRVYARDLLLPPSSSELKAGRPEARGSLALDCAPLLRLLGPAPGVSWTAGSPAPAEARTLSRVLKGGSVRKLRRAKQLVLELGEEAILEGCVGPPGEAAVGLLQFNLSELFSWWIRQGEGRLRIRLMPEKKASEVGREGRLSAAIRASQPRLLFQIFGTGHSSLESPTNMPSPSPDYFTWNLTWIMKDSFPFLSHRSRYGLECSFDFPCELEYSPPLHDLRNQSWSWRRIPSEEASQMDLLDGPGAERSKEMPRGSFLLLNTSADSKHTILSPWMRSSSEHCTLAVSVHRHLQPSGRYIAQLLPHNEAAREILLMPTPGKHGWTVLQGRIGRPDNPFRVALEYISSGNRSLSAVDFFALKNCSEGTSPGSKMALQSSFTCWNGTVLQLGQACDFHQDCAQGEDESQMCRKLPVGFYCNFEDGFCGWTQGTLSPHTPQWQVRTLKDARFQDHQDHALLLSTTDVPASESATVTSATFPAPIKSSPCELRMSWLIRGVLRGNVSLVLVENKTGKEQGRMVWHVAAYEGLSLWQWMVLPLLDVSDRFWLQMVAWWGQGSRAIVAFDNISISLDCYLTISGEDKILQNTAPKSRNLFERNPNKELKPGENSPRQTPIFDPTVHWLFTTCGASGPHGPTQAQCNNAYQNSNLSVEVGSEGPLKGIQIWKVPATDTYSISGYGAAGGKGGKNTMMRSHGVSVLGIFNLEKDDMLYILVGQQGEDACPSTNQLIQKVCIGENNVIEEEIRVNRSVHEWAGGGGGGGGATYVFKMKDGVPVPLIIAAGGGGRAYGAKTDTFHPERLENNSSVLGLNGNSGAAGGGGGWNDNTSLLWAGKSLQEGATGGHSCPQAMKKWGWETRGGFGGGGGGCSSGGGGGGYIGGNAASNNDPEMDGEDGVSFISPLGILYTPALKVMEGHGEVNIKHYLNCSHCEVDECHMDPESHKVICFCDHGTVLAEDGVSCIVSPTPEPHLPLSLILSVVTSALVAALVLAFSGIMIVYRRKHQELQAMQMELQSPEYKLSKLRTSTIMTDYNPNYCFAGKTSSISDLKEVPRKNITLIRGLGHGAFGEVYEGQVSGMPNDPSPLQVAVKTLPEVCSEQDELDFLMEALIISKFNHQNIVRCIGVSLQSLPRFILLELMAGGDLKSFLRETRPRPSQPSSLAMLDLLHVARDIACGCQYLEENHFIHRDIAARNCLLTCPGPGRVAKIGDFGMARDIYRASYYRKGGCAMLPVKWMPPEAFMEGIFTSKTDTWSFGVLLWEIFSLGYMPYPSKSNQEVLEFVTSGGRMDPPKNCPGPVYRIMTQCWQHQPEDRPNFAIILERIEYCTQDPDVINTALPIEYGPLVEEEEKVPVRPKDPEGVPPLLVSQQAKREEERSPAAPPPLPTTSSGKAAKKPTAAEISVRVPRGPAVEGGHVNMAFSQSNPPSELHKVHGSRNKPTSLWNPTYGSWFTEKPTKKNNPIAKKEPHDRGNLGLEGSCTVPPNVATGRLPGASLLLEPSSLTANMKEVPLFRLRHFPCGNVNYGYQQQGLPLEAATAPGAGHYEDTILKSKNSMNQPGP
T19 sequence (P23458 whole entry): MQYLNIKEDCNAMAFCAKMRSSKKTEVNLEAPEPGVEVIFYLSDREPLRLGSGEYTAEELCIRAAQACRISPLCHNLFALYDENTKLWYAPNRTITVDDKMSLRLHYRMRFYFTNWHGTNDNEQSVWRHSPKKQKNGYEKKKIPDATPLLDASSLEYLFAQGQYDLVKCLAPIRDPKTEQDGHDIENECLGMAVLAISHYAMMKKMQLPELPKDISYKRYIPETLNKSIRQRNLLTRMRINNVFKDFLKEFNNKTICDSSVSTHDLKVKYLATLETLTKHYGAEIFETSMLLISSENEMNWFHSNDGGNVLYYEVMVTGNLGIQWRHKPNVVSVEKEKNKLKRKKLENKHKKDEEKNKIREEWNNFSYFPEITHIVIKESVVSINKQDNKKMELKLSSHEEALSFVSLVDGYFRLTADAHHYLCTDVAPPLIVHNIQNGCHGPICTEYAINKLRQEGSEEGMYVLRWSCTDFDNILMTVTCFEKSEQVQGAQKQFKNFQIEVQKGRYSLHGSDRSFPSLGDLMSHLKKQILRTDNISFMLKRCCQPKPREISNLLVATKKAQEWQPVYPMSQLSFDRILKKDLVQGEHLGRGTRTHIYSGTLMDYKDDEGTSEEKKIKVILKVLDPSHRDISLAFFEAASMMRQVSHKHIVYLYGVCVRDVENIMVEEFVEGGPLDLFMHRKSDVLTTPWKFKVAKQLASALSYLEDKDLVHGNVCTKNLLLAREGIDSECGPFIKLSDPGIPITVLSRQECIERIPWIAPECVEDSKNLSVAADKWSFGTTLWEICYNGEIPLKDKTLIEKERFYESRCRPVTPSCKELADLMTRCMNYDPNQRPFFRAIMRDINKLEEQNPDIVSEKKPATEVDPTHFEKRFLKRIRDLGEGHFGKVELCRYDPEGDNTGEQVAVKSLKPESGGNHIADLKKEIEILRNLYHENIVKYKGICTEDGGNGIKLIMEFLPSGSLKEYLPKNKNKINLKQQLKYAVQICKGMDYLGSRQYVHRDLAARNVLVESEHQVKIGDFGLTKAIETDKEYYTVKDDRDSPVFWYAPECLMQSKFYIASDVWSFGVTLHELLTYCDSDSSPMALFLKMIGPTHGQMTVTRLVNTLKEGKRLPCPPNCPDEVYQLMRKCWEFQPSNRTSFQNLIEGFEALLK
T4 sequence (O60285 whole entry): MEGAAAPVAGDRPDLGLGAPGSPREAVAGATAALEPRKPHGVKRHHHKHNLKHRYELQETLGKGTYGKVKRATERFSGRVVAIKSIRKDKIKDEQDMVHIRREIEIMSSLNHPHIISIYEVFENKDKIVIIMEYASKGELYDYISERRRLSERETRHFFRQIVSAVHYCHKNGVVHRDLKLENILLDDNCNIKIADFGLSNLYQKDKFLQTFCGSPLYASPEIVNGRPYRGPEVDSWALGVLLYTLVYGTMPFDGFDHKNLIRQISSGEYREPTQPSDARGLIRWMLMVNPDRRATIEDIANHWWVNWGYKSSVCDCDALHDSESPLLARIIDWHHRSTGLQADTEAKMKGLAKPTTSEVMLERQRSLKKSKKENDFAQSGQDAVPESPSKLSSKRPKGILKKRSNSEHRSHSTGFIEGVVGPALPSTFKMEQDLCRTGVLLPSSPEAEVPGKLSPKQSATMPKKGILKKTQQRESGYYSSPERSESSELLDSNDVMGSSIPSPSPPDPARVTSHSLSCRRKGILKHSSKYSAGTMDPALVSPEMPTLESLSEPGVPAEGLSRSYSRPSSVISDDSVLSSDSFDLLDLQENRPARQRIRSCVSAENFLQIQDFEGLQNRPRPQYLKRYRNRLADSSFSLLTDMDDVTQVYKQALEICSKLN
T20 sequence (O60674 whole entry): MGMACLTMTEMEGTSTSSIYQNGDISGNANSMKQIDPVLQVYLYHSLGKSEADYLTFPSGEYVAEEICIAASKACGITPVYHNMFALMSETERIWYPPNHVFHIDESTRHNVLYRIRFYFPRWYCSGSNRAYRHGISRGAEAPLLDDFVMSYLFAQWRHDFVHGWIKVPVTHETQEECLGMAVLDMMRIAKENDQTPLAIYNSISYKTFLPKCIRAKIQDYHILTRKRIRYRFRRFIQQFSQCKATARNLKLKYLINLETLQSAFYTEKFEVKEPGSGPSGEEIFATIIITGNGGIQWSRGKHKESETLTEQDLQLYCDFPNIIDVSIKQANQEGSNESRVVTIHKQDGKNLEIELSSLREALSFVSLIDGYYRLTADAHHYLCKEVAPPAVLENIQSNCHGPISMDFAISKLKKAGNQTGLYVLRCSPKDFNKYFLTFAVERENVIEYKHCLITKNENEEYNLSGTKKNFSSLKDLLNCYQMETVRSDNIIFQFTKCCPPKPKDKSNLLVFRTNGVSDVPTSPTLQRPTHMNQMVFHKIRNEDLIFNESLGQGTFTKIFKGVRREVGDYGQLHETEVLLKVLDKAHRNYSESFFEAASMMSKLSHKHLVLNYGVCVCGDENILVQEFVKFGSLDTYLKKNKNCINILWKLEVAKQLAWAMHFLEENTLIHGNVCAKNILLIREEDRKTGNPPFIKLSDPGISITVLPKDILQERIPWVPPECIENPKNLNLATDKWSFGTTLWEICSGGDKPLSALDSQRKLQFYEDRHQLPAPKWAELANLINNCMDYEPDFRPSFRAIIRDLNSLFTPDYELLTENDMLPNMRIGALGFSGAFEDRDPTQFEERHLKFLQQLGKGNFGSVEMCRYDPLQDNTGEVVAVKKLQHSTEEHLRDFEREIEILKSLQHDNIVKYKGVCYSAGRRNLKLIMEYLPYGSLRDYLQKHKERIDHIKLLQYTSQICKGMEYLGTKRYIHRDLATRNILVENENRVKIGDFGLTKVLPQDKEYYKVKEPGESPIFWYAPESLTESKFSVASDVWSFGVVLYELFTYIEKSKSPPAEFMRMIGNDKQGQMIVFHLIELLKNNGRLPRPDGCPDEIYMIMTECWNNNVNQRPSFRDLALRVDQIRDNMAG
T6 sequence (Q96GD4 whole entry): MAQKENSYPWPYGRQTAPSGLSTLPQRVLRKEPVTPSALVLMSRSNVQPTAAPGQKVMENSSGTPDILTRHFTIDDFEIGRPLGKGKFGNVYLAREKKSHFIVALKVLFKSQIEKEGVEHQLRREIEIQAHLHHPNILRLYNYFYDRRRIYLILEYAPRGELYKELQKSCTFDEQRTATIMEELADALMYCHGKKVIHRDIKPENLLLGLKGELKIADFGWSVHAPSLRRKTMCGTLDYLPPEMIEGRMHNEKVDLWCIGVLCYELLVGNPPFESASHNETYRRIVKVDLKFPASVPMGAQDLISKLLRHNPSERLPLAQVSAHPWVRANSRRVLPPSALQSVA

IC50 (ABL1): < 100 nM
IC50 (AKT1): > 1000 nM
IC50 (ALK): < 100 nM
IC50 (ARK5/NUAK1): < 100 nM
IC50 (Aurora A): 100 to 1000 nM
IC50 (Aurora B): < 100 nM
IC50 (Aurora C): > 1000 nM
IC50 (CDK2/cyclin A): > 1000 nM
IC50 (CDK4/cyclin D1): 100 to 1000 nM
IC50 (CDK5/p25): > 10000 nM
IC50 (CDK5/p35): > 10000 nM
IC50 (CDK6/cyclin D1): 100 to 1000 nM
IC50 (CHK1): 100 to 1000 nM
IC50 (CHK2): 100 to 1000 nM
IC50 (CK2a2): 100 to 1000 nM
IC50 (EGFR): 100 to 1000 nM
IC50 (FGFR1): < 100 nM
IC50 (FLT3): < 100 nM
IC50 (JAK1): 100 to 1000 nM
IC50 (JAK2): 100 to 1000 nM
IC50 (JAK3): 100 to 1000 nM
IC50 (MEK1): > 1000 nM
IC50 (MEK2): > 1000 nM
IC50 (PDGFRb): < 100 nM
IC50 (PIM1): > 1000 nM
IC50 (PIM2): > 1000 nM
IC50 (PIM3): > 1000 nM
IC50 (PLK1): 100 to 1000 nM
IC50 (PLK2): > 1000 nM
IC50 (RET): < 100 nM
IC50 (RSK4): < 100 nM
IC50 (c-Kit): 100 to 1000 nM
IC50 (c-Src): < 100 nM
SMILES: CN1CCN(c2ccc(Nc3ncc(/C=C/C#N)c(NC4CCCC4)n3)cc2)CC1 [Compound 8h, 3-{4-Cyclopentylamino-2-[4-(4-methylpiperazin-1-yl)phenylamino]pyrimidin-5-yl}acrylonitrile]
